# Source: patent US7160733B2, “Ligand specific to β2-glycoprotein I and use thereof” (priority 2001, dated 2007)
# How the values were obtained:
# APS-1 = assay: ELISA on solid-phase lipid-coated plate: binding of antibodies of APS patient serum APS-1; set-up: species or system human; conditions: Experiment 1; Absorbance, mean ± SD, n = 3; solid-phase lipid, β2-GPI 15 μg/mL; serum with β2-GPI removed
# Procedure: (§1) To eliminate endogenous β2-GPI in some experiments, serum samples were passed through a heparin-Sepharose column. The effluent was dialyzed against PBS and was used for ELISAs.
# (§2) Synthesized oxLig-1 (50 μg/mL, 50 μL/well) was adsorbed by evaporation on a polystyrene plate (Immulon 1B; Dynex Technologies Inc.), and the plate was then blocked with 1% BSA. Serum samples (diluted 1:100 with PBS containing 0.3% BSA) were incubated in the wells with β2-GPI (15 μg/mL) or other proteins for one hour at room temperature. Antibody binding was detected with HRP-labeled anti-human IgG. Further steps were performed through a method as described in “anti-β2-GPI ELISA.”
# (§3) CL (50 μg/mL, 50 μL/well) was adsorbed on a polystyrene plate (Immulon 1B), and further steps were performed through a method as described in “ELISA for antibodies against a protein-oxLig-1 complex.”
# APS-2 = assay: ELISA on solid-phase lipid-coated plate: binding of antibodies of APS patient serum APS-2; set-up: species or system human; conditions: Experiment 1; Absorbance, mean ± SD, n = 3; solid-phase lipid, β2-GPI 15 μg/mL; serum with β2-GPI removed
# Procedure: as §1, §2, §3
# anti-β2-GPI antibodies = assay: ELISA of the anti-β2-GPI antibodies by use of a ligand-coated plate (results in words); assay type: binding; conditions: result in words
# Procedure: Binding to extracted lipids: A microtiter plate (Immulon 1B, Dynex Technologies Inc.) was coated with lipids extracted from LDLs (50 μg/mL, 50 μL/well) by ethanol evaporation. The wells were blocked with PBS containing 1% BSA for one hour and the wells were incubated with 30 μg/mL of β2-GPI for one hour. Then, β2-GPI binding was detected using Cof-22 and HRP-labeled anti-mouse IgG antibodies. Alternatively, an anti-β2-GPI autoantibody (Cof-22, WB-CAL-1, or EY2C9) was diluted with a 0.3% BSA-containing PBS, and the diluted antibody was added to the coated plate (1.0 μg/mL, 100 μL/well) and incubated with β2-GPI (15 μg/mL) for one hour. The binding of the antibody was detected by an HRP-labeled anti-mouse IgG /or an anti-human IgM. The color was developed with H2O2 and o-phenylenediamine, and OD was measured at 490 nm. Between these steps, extensive washing were done using PBS containing 0.05% Tween 20.
# as §2
# [1] = biological target: T1, β2-GPI and anti-β2-GPI antibodies (Cof-22, WB-CAL-1, EY2C9) (Homo sapiens, UniProt P02749); assay: TLC ligand blot with β2-GPI and anti-β2-GPI antibodies; assay type: binding; conditions: result in words
# T1 construct: β2-GPI was purified from normal human plasma as described in [35] with slight modification; from tissue; host or cells: β2-GPI from pooled normal human plasma
# T1 sequence (P02749 20-345): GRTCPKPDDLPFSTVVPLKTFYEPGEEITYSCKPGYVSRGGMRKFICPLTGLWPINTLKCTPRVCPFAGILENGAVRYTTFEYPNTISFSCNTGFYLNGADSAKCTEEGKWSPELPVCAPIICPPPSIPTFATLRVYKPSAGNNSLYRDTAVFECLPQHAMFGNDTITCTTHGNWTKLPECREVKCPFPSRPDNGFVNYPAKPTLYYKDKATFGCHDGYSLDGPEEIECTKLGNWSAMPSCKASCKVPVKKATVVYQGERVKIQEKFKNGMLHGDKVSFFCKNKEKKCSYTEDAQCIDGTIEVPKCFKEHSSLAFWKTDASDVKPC
# Description: Extracted lipids were spotted on a Polygram silica gel plate (product of Machery-Nagel) and developed in chloroform/methanol/30% ammonia/water (120:80:10:5, v/v/v/v, hereinafter referred to as solvent A). The plate was stained with I2 vapor, or with a spray of molybdenum blue, of 2N sulfuric acid containing 2% orcin, or of glacial acetic acid/sulfuric acid (19:1, v/v) (Lieberman-Burchard reaction). Alternatively, the developed plate was subjected to ligand blot with β2-GPI and an anti-β2-GPI antibody. TLC plates were blocked with PBS containing 1% bovine serum albumin (BSA) and were subsequently incubated with β2-GPI, anti-β2-GPI antibodies (Cof-22, WB-CAL-1, or EY2C9), and HRP-labeled anti-mouse IgG antibodies or anti-human IgM antibodies for one hour. In each step, plates were extensively washed with PBS. The color was developed with H2O2 and 4-methoxy-1-naphtol (product of Aldrich). The ligand-enriched bands scraped from the TLC plate were subjected to another TLC in chloroform/methanol (8:1, v/v) (hereinafter referred to as solvent B). […]
# A fraction rich in a ligand (originating from oxLDL) obtained by two-step TLC was analyzed by reversed phase HPLC on a Sephasil Peptide C-18 5-μm column (4.6 mm×250 mm; product of Amersham-Pharmacia Biotech). […]
structure (smiles),measurement,setting,value
"CC(C)CCC[C@@H](C)[C@H]1CC[C@H]2[C@@H]3C(=O)C=C4C[C@@H](OC(=O)CCCCCCCC(=O)O)CC[C@]4(C)[C@H]3CC[C@]12C [oxLig-1, 9-oxo-9-(7-ketocholest-5-en-3β-yloxy)nonanoic acid]","Binding of β2-GPI-dependent aCL, APS-1",APS-1,1.130 ± 0.177
same,"Binding of β2-GPI-dependent aCL, APS-2",APS-2,1.222 ± 0.057
same,binding of the anti-β2-GPI autoantibodies (WB-CAL-1 and EY2C9) to solid-phase ligand,anti-β2-GPI antibodies; ligand-coated plate,significant binding
same,cross-reaction of autoantibodies derived from APS with β2-GPI complexed with lipid,anti-β2-GPI antibodies,cross-reacted
same,ligand blot: interaction of β2-GPI and anti-β2-GPI antibodies with ligand,[1],positively stained
same,ligand blot: interaction of β2-GPI and anti-β2-GPI antibodies with ligand,[1]; listed as Synthesized oxLig-1,same Rf position and binding characteristics
